Columns and labels:
FGFR2 V564F = FGFR2 V564F (Homo sapiens (Human), UniProt P21802, V564F); experiment: TR-FRET kinase inhibition assay, FGFR2 V564F; type: biochemical; details: ATP Km concentration (20 μM)
How it was run: (§1)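 Kinase-domain fragments in 50 mM HEPES pH 7.5 with 10 mM MgCl2, ATP at Km plus peptide substrate; 60 min reaction at room temperature, then EDTA/Eu-anti-phosphotyrosine (PT66) detection for 60 min (30 min for V564F). 11-point 3-fold dilutions from 1000 nM; IC50 from four-parameter fit of 665/620 nm ratio inhibition.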

FGFR1 = FGFR1 (Homo sapiens (Human), UniProt P11362); experiment: TR-FRET kinase inhibition assay, FGFR1; type: biochemical; details: ATP Km concentration (30 μM)
FGFR1, sequence (P11362 478-767): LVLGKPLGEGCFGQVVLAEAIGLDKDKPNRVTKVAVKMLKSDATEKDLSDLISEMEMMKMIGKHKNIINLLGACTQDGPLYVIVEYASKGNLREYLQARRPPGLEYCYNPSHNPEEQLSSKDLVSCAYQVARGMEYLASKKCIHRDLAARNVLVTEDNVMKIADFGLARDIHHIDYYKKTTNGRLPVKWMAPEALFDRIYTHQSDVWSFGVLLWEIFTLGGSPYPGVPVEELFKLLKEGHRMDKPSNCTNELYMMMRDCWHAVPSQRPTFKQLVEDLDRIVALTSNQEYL
How it was run: as §1

FGFR3 = FGFR3 (Homo sapiens (Human), UniProt P22607); experiment: TR-FRET kinase inhibition assay, FGFR3; type: biochemical; details: ATP Km concentration (30 μM)
FGFR3, sequence (P22607 472-761): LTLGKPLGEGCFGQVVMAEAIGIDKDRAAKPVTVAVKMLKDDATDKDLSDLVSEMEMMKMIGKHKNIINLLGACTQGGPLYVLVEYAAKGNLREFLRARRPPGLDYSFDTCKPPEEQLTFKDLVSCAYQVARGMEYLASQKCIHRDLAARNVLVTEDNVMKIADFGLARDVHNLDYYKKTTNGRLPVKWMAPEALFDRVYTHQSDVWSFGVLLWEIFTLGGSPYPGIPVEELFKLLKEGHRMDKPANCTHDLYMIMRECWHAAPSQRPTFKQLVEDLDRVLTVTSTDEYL
Description: To measure the IC50 values of the compounds against FGFR1, FGFR2, FGFR3, FGFR4, and FGFR2 V564F at ATP Km concentrations by TR-FRET method.
TR-FRET (time-resolved fluorescence resonance energy transfer) method was used to detect the inhibitory activity of the compounds on FGFR1, FGFR2, FGFR3, FGFR4, and FGFR2 V564F kinase region fragments. The highest detection concentration of the compounds in 5 kinase experiments was 1000 nM, which was diluted in 3 folds, with a total of 11 concentrations (1000 nM to 0.017 nM). A kinase buffer (50 mM HEPES pH 7.5, 1 mM EGTA, 10 mM MgCl2, 2 mM DTT, and 0.01% Tween-20) was used to prepare 4× enzyme solution, 4× compound solutions diluted in gradient, and a 2×ATP/Peptide substrate solution. To a 384-well plate, 2.5 μL of enzyme solution and 2.5 μL of diluted […] compound solution were added, and 5 μL of 2×ATP/Peptide substrate solution was then added. After reacting at room temperature for 60 minutes for FGFR1, FGFR2, FGFR3, and FGFR2 V564F kinases, and 120 minutes for FGFR4 kinase, 10 μL of a 2× termination and detection mixed liquid prepared with 1×LANCE detection buffer with an EDTA concentration of 20 mM and a Europium-anti-phosphotyrosine (PT66) concentration of 2 nM was added to each well of the plate. After reacting at room temperature for 60 minutes for FGFR1, FGFR2, FGFR3, and FGFR4, and 30 minutes for FGFR2 V564F, the fluorescence signal value in each well of the plate was measured by a microplate reader.
(§2) 1) Inhibition rate (%): Calculation was performed on the raw data (665 nm/620 nm reading ratio) according to the following formula to obtain the inhibition rate. Inhibition rate %=[(mean value in positive control well−value in sample well)/(mean value in positive control well−mean value in negative control well)]×100, wherein the positive control well was a reaction well without a compound […], and the negative control well was a reaction wells without an enzyme.
(§3) 2) Curve fitting: Log(inhibitor) vs. response—Variable slope (four parameters) in GraphPad Prism 6 was used for fitting equation analysis of the compound concentration and the corresponding inhibition rate, and the curve was fitted to obtain the IC50 values of the compounds.

NCI-H716 cells = experiment: CellTiter-Glo cell proliferation inhibition, NCI-H716; type: cell-based; details: Homo sapiens, 72 h, read-out: NCI-H716 cell proliferation inhibition rate IC50
Description: To evaluate inhibitory effects of the compounds on the proliferation of NCI-H716, SNU-16 and BaF3-FGFR2-BICC1 V564F cells by cell proliferation inhibition experiments.
CellTiter-Glo method was used to detect inhibitory effects of the compounds on the proliferation of NCI-H716, SNU-16 and BaF3 FGFR2-BICC1 V564F cells. The highest detection concentration of the compounds was 1000 nM, which was diluted in 3 folds, with a total of 9 concentrations (1000 nM to 0.15 nM). After the cells were plated at an appropriate density, compounds were added the next day and incubated for 72 h before detection using the […] detection kit.
as §2, with “(%):” for “(%): Calculation was performed on the raw data (665 nm/620 nm reading ratio) according to the following formula to obtain the inhibition rate.”
as §3

[1] = test system: BaF3 FGFR2-BICC1 V564F cells; experiment: CellTiter-Glo cell proliferation inhibition, BaF3 FGFR2-BICC1 V564F; type: cell-based; details: Mus musculus, 72 h, read-out: BaF3 FGFR2-BICC1 V564F inhibitory activity IC50
How it was run: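 Cells plated, compound added next day as 9-point 3-fold series from 1000 nM to 0.15 nM, incubated 72 h. Viability by CellTiter-Glo luminescence; IC50 from four-parameter variable-slope fit of percent inhibition.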

FGFR2 = FGFR2 (Homo sapiens (Human), UniProt P21802); experiment: TR-FRET kinase inhibition assay, FGFR2; type: biochemical; details: ATP Km concentration (30 μM)
FGFR2, sequence (P21802 481-770): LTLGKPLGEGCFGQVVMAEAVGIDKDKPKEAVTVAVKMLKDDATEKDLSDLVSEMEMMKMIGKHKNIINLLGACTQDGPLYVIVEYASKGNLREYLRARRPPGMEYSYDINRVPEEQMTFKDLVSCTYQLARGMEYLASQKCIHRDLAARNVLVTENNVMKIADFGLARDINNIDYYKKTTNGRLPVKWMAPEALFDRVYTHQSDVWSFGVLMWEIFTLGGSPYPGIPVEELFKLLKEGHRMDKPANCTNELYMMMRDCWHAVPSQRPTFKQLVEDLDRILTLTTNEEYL
How it was run: as §1

[2] = Pharmacokinetic experiment in SD rats after oral administration; type: in vivo; details: 5 mg/kg, plasma; for AUC(0-t) / AUC(0-inf) / half-life / MRT / Cmax: male, Sprague-Dawley (SD), rat, po; for AUC(0-t): read-out: Area under the curve AUC0-t; for AUC(0-inf): read-out: Area under the curve AUC0-∞; for half-life: read-out: Half-life t1/2 (converted); for MRT: read-out: Mean residence time MRT; for Cmax: read-out: Plasma concentration Cmax; for Time to peak tmax: p.o.

FGFR2 V564F, sequence (P21802 481-770 V564F): as the sequence (P21802 481-770) above, with V84F counted along it

| IC50 (FGFR2 V564F) [nM] | IC50 (FGFR1) [nM] | IC50 (FGFR3) [nM] | IC50 (NCI-H716 cells) [nM] | IC50 [1] [nM] | IC50 (FGFR2) [nM] | AUC(0-t) [2] [ng·h/mL] | AUC(0-inf) [2] [ng·h/mL] | half-life [2] [h] | MRT [2] [h] | Cmax [2] [ng/mL] | Time to peak tmax [2] [h] | SMILES |
| --- | --- | --- | --- | --- | --- | --- | --- | --- | --- | --- | --- | --- |
| 2.8 | 7.2 | 2.7 | 1.5 | 2.2 | 2 | – | – | – | – | – | – | C=CC(=O)N1CC[C@H](n2nc(C#Cc3ccc4ccnn4c3)c3c(N)ncc(C(C)=O)c32)C1 [Example 71, (S)-1-(3-(7-acetyl-4-amino-3-(pyrazolo[1,5-a]pyridine-6-ethynylene)-1H-pyrazolo[4,3-c]pyridin-1-yl)pyrrolidine-1-methyl)prop-2-en-1-one] |
| 1.3 | 2.4 | – | 1.6 | 2.6 | 0.6 | 1510 | 1860 | 2.5 | 5.5 | 287 | 4 | C=CC(=O)N1CC[C@H](n2nc(C#Cc3ccc4oc(C5CC5)nc4c3)c3c(N)ncc(C(C)=O)c32)C1 [Example 70, (S)-1-(3-(7-acetyl-4-amino-3-((2-cyclopropylbenzo[d]oxazol-5-yl)alkynyl)-1H-pyrazolo[4,3-c]pyridin-1-yl)pyrrolidine-1-methyl)prop-2-en-1-one] |
| 0.3 | 1.4 | 0.5 | 0.21 | 0.5 | 0.3 | 2800 | 2910 | 1.4 | 3.05 | 677 | 1 | C=CC(=O)N1CC[C@H](n2nc(C#Cc3ccc4cn(C)nc4c3)c3c(N)ncc(C(C)=O)c32)C1 [Example 82, (S)-1-(3-(7-acetyl-4-amino-3-((2-methyl-2H-indazol-6-yl)alkynyl)-1H-pyrazolo[4,3-c]pyridin-1-yl)pyrrolidine-1-methyl)prop-2-en-1-one] |
| 0.6 | 6.3 | – | 1.8 | 1.9 | 1.4 | 3400 | 3430 | 0.9 | 2.58 | 866 | 2 | C=CC(=O)N1CC[C@H](n2nc(C#Cc3ccc4c(c3)ncn4C)c3c(N)ncc(C(=O)CC)c32)C1 [Example 64, (S)-1-(3-(4-amino-3-((1-methyl-1H-benzo[d]imidazol-5-yl)ethynyl)-7-propionyl-1H-pyrazolo[4,3-c]pyridin-1-yl)pyrrolidin-1-yl)prop-2-en-1-one] |
| 0.5 | 2.4 | 1.1 | 0.95 | 2 | 1 | – | – | – | – | – | – | C=CC(=O)N1CC[C@H](n2nc(C#Cc3ccc4c(c3)ncn4C3CC3)c3c(N)ncc(C(C)=O)c32)C1 [Example 37, (S)-1-(3-(7-acetyl-4-amino-3-((1-cyclopropyl-1H-benzo[d]imidazol-5-yl)ethynyl)-1H-pyrazolo[4,3-c]pyridin-1-yl)pyrrolidin-1-yl)prop-2-en-1-one] |
| 0.5 | 2.1 | – | 0.96 | 0.4 | 0.4 | 1490 | 1490 | 0.5 | 2.39 | 394 | 0.5 | C=CC(=O)N1CC[C@H](n2nc(C#Cc3ccc4cn(CC)nc4c3)c3c(N)ncc(C(C)=O)c32)C1 [Example 85, (S)-1-(3-(7-acetyl-4-amino-3-((2-ethyl-2H-indazol-6-yl)alkynyl)-1H-pyrazolo[4,3-c]pyridin-1-yl)pyrrolidine-1-methyl)prop-2-en-1-one] |
| 2.1 | 7.3 | 1.6 | 1.97 | 1.5 | 1.4 | 1150 | 1150 | 0.6 | 2.26 | 298 | 0.5 | C=CC(=O)N1CC[C@H](n2nc(C#Cc3ccc4ccnn4c3)c3c(N)ncc(C(=O)CC)c32)C1 [Example 72, (S)-1-(3-(4-amino-7-propionyl-3-(pyrazolo[1,5-a]pyridine-6-ethynylene)-1H-pyrazolo[4,3-c]pyridin-1-yl)pyrrolidine-1-methyl)prop-2-en-1-one] |
